Some test systems named below: 786-0; A549; HCT-116; HL-60; HOP-62; HT-29; K562; KM12; NCI-H460; NCI-H522; NCI/ADR-RES; OVCAR-3; PC-3; RPMI-8226; RXF 393; SK-MEL-2; SK-OV-3; SW-620; TK-10.
Experiment in all cases: NCI anticancer screen, dose series, 48 h

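In this assay, cells in 96-well plates receive the compound at five concentrations for 48 hours. Endpoints are linearly interpolated between the surrounding concentrations. Here, GI50 denotes the concentration required for 50% inhibition of growth.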 The source made the active and inactive calls. Cut-off read from the data, not from the text of the source: active = GI50 up to about 1.1 µM and inactive = higher.

As for `COc1cc(S(=O)(=O)Nc2ccc(-c3csc(N4C(=O)C(Cl)C4c4ccccc4)n3)cc2)ccc1Cl` (stereo not given), the GI50 is 19.2 µM (inactive) in the assay with 786-0; > 100 µM (inactive) in the assay with A549; 59.6 µM (inactive) in the assay on HCT-116; 54.6 µM (inactive) with HL-60; 69.2 µM (inactive) in the assay on HOP-62; > 100 µM (inactive) in the assay on HT-29. Moreover, the GI50 in the assay with K562 is 32.2 µM (inactive); in the assay with KM12 it was 44.2 µM (inactive); with NCI-H460, < 0.01 µM (active); with NCI-H522, 3.14 µM (inactive); in the assay with NCI/ADR-RES it was > 100 µM (inactive); in the assay with OVCAR-3 it was > 100 µM (inactive). In addition, the GI50 is > 100 µM (inactive) with PC-3; 31.4 µM (inactive) in the assay on RPMI-8226; 10.7 µM (inactive) in the assay with RXF 393; > 100 µM (inactive) in the assay with SK-MEL-2; > 100 µM (inactive) in the assay on SK-OV-3; 50.4 µM (inactive) in the assay on SW-620. Also, the GI50 with TK-10 is > 100 µM (inactive).
Take `CCOc1ccccc1/C=C(/C#N)C(N)=O`: the GI50 in the assay with 786-0 is > 100 µM (inactive); with A549, > 100 µM (inactive); in the assay with HCT-116, 78.3 µM (inactive); in the assay on HL-60 it was 21.6 µM (inactive); with HOP-62, > 100 µM (inactive); in the assay on HT-29, > 100 µM (inactive). The GI50 is 36.2 µM (inactive) in the assay on K562; > 100 µM (inactive) with KM12; > 100 µM (inactive) with NCI-H460; > 100 µM (inactive) with NCI-H522; > 100 µM (inactive) in the assay on NCI/ADR-RES; > 100 µM (inactive) in the assay with OVCAR-3. Also, the GI50 in the assay with PC-3 was > 100 µM (inactive); in the assay on RPMI-8226, > 100 µM (inactive); in the assay on RXF 393 it was > 100 µM (inactive); in the assay with SK-MEL-2 it was > 100 µM (inactive); in the assay on SK-OV-3 it was > 100 µM (inactive); with SW-620, 60 µM (inactive). Moreover, in the assay on TK-10, the GI50 is > 100 µM (inactive).
Turning to `CC[C@@]1(O)C(=O)OCc2c1cc1n(c2=O)Cc2c-1nc1ccc(N)cc1c2CC[Si](C)(C)C`, the GI50 in the assay on 786-0, in the assay on A549, in the assay on HCT-116, with HL-60, in the assay on HOP-62 and in the assay with HT-29 was < 0.01 µM (active) each time. Besides, the GI50 with K562 was < 0.01 µM (active); with KM12 it was 0.0155 µM (active); in the assay on NCI-H460, < 0.01 µM (active); with NCI-H522, < 0.01 µM (active); with NCI/ADR-RES it was < 0.01 µM (active); in the assay on OVCAR-3, < 0.0188 µM (active). Also, the GI50 was < 0.0229 µM (active) in the assay with PC-3; < 0.01 µM (active) in the assay with RPMI-8226; < 0.01 µM (active) with RXF 393; 0.0409 µM (active) in the assay on SK-MEL-2; < 0.01 µM (active) with SK-OV-3; < 0.01 µM (active) in the assay on SW-620. Also, the GI50 with TK-10 is 0.051 µM (active).
As to `c1ccc(C2=NCCN2)c(C2=NCCN2)c1`, the GI50 with 786-0, with A549, in the assay on HCT-116, in the assay on HL-60, with HOP-62 and in the assay with HT-29 was > 100 µM (inactive) throughout. Moreover, the GI50 in the assay with K562, in the assay on KM12, in the assay on NCI-H460, with NCI-H522, in the assay on NCI/ADR-RES and in the assay on OVCAR-3 was > 100 µM (inactive) in each case. The GI50 in the assay on PC-3, with RPMI-8226, with RXF 393, in the assay on SK-MEL-2, in the assay on SK-OV-3 and with SW-620 was > 100 µM (inactive) each time. In the assay with TK-10, the GI50 was > 100 µM (inactive).
Turning to `CC(O)C1CC1(CO)CNc1cc(Cl)nc(N)n1` (stereo not given), the GI50 in the assay on 786-0, with A549, in the assay with HCT-116, in the assay with HL-60, with HOP-62 and in the assay on HT-29 was > 100 µM (inactive) throughout. Moreover, the GI50 in the assay with K562, in the assay with KM12, in the assay with NCI-H460, in the assay on NCI-H522, in the assay with NCI/ADR-RES and in the assay on OVCAR-3 was > 100 µM (inactive) throughout. Moreover, the GI50 with PC-3, in the assay with RPMI-8226, with RXF 393, with SK-MEL-2, with SK-OV-3 and in the assay with SW-620 was > 100 µM (inactive) throughout. The GI50 in the assay on TK-10 is > 100 µM (inactive).
For the molecule `O=S(=O)(CC(O)C(Cl)(Cl)Cl)NNc1ccccc1` (stereo not given), the GI50 in the assay with 786-0 was > 100 µM (inactive); in the assay on A549, > 100 µM (inactive); in the assay on HCT-116, > 100 µM (inactive); with HL-60, 47.6 µM (inactive); with HOP-62, > 100 µM (inactive); in the assay with HT-29, > 100 µM (inactive). Moreover, the GI50 in the assay with K562 is 23 µM (inactive); in the assay on KM12, > 100 µM (inactive); in the assay with NCI-H460, 75.3 µM (inactive); in the assay on NCI-H522, > 100 µM (inactive); with NCI/ADR-RES, > 100 µM (inactive); with OVCAR-3, > 100 µM (inactive). Also, the GI50 with PC-3, in the assay with RPMI-8226, in the assay with RXF 393, in the assay with SK-MEL-2, in the assay with SK-OV-3 and with SW-620 was > 100 µM (inactive) in each case. Further, the GI50 in the assay on TK-10 was > 100 µM (inactive).
For `CC(C)(C)c1ccc(O)c(Br)c1`, the GI50 is > 100 µM (inactive) in the assay on 786-0; > 100 µM (inactive) with A549; > 100 µM (inactive) with HCT-116; 36.6 µM (inactive) with HL-60; > 100 µM (inactive) in the assay on HOP-62; > 100 µM (inactive) in the assay with HT-29. For the same molecule, the GI50 was > 100 µM (inactive) in the assay on K562; 63.5 µM (inactive) with KM12; > 100 µM (inactive) with NCI-H460; > 100 µM (inactive) in the assay with NCI-H522; > 100 µM (inactive) in the assay on NCI/ADR-RES; > 100 µM (inactive) with OVCAR-3. For the same molecule, the GI50 in the assay on PC-3 is > 100 µM (inactive); with RPMI-8226, > 100 µM (inactive); with RXF 393, 34.1 µM (inactive); in the assay with SK-MEL-2 it was > 100 µM (inactive); with SK-OV-3, > 100 µM (inactive); in the assay on SW-620 it was > 100 µM (inactive). For the same molecule, in the assay on TK-10, the GI50 was > 100 µM (inactive).
On to `CC(C)=CCC/C(C)=C/CC/C(C)=C/CCN(C)CCO`, for which the GI50 is 2.11 µM (inactive) in the assay with 786-0; 9.77 µM (inactive) with A549; 4.12 µM (inactive) in the assay on HCT-116; 1.95 µM (inactive) with HL-60; 6.78 µM (inactive) in the assay on HOP-62; 11.2 µM (inactive) with HT-29. In addition, the GI50 with K562 is 1.54 µM (inactive); in the assay on KM12, 2.75 µM (inactive); in the assay on NCI-H460, 4.78 µM (inactive); with NCI-H522, 6.61 µM (inactive); in the assay on NCI/ADR-RES, 12.4 µM (inactive); in the assay with OVCAR-3 it was 13.8 µM (inactive). For the same molecule, the GI50 in the assay on PC-3 was 6.47 µM (inactive); in the assay on RPMI-8226, 2.96 µM (inactive); in the assay on RXF 393 it was 7.59 µM (inactive); in the assay on SK-MEL-2, 13.2 µM (inactive); in the assay with SK-OV-3, 15.1 µM (inactive); in the assay with SW-620, 3.58 µM (inactive). The GI50 with TK-10 is 6 µM (inactive).
`OCCO[P+]1(OCCO)n2c3ccc2C(c2ccccc2)=C2C=CC(=N2)C(c2ccccc2)=c2ccc(n21)=C(c1ccccc1)C1=NC(=C3c2ccccc2)C=C1`: the GI50 was 0.0764 µM (active) in the assay on 786-0; 0.0389 µM (active) in the assay on A549; 0.0218 µM (active) in the assay with HCT-116; 0.0152 µM (active) in the assay with HL-60; 0.0708 µM (active) with HOP-62; 0.0281 µM (active) in the assay on HT-29. In addition, the GI50 in the assay on K562 was 0.0109 µM (active); in the assay on KM12, 0.0247 µM (active); in the assay with NCI-H460, 0.0378 µM (active); in the assay with NCI-H522 it was 0.0405 µM (active); in the assay on NCI/ADR-RES, 3.28 µM (inactive); in the assay with OVCAR-3, 0.0218 µM (active). The GI50 is 0.0299 µM (active) with PC-3; < 0.01 µM (active) in the assay on RPMI-8226; 0.182 µM (active) in the assay on RXF 393; 0.0481 µM (active) in the assay on SK-MEL-2; 0.0561 µM (active) in the assay on SK-OV-3; 0.129 µM (active) with SW-620. In the assay on TK-10, the GI50 is 0.119 µM (active).
Take `c1ccc([P+](c2ccccc2)(c2ccccc2)c2ccc([P+](c3ccccc3)(c3ccccc3)c3ccccc3)cc2)cc1`: the GI50 in the assay on 786-0 was > 100 µM (inactive); in the assay on A549, 64.9 µM (inactive); with HCT-116, 32 µM (inactive); in the assay with HL-60 it was 16 µM (inactive); in the assay with HOP-62, > 100 µM (inactive); in the assay on HT-29 it was 45.8 µM (inactive). For the same molecule, the GI50 in the assay on K562 is 28.4 µM (inactive); in the assay with KM12, 31 µM (inactive); in the assay on NCI-H460, 43.5 µM (inactive); in the assay on NCI-H522 it was 37.1 µM (inactive); with NCI/ADR-RES, > 100 µM (inactive); in the assay on OVCAR-3 it was 48.2 µM (inactive). The GI50 was 41.4 µM (inactive) with PC-3; > 100 µM (inactive) with RPMI-8226; 34.8 µM (inactive) in the assay with RXF 393; 34.3 µM (inactive) in the assay with SK-MEL-2; > 100 µM (inactive) in the assay with SK-OV-3; > 100 µM (inactive) with SW-620. Moreover, in the assay on TK-10, the GI50 is 60.7 µM (inactive).
